Results taken from patent publication US20250161403A1, “PEPTIDES AND METHODS OF USE THEREOF IN TREATING OCULAR DISORDERS” (Biomarck Pharmaceuticals, Ltd., priority 2022, published 2025).

Legend:
Type in all cases: in vivo, Sprague-Dawley rats
[1] = tested on: dry eye in the Alacrimal Rat Model; assay: Alacrimal rat dry eye model: corneal fluorescein (FL) retention score; details: 100 μM topical 4 times a day
Description: (§1) Dry eye was induced in the left eye of Sprague-Dawley rats by removal of the extraorbital lacrimal gland. […] Topical administration of test compounds was initiated 2 weeks after surgery, given 4 times a day and continued for 24 days. Sham rats (n=6) were untreated. Alacrimal rats (n=6 each) were dosed bilaterally with 10 μL of phosphate buffered saline (PBS), or 100 μM of either of two MARCKS inhibitors: BIO-11006 [high molecular weight] or BIO-91201 [lower molecular weight]. The efficacy of these MARCKS inhibitor peptides was assessed via clinical examination using biomicroscopy and phenol red test (PRT) tear volume with the observers masked to the treatments. Examinations were at baseline, 2 weeks after surgery, and on days 1, 3, 7, 14, 21, and 24 after initiating dosing. Clinical scores for corneal opacity, vascularization, and corneal fluorescein (FL) retention were recorded at each examination.
PRT was higher in MARCKs inhibitor-dosed groups compared to PBS groups on days 14, 21, and 24 after surgery (p<0.02; t test). Fluorescein retention score was measured as shown in the table below, and the scores and statistical analyses are provided in FIG. 2.
Fluorescein retention scores.

[2] = tested on: dry eye in the Alacrimal Rat Model; assay: Alacrimal rat dry eye model: clinical examination by biomicroscopy, corneal opacity score; details: for Corneal scores compared to sham: 100 μM topical 4 times a day, days 3 and 7
Description: as §1
Corneal scores were assessed as in the table below.

[3] = tested on: dry eye in the Alacrimal Rat Model; assay: Alacrimal rat dry eye model: phenol red test (PRT) tear volume; details: overall conclusion of the study; 100 μM topical
Description: as §1
FIG. 3 provides the results of the phenol red test (PRT), showing tear measurement in mm/20 s averaged for each group.

Substance | FL retention scores versus sham eyes ([1]; through day 14) | corneal fluorescein (FL) retention ([1]; versus PBS or BIO-11006 dosed eyes, p<0.02) | Corneal scores compared to sham [2] | corneal opacity scores ([2]; 100 μM, 10 μL topical 4 times a day for 24 days, relative to PBS and BIO-11006 dosed groups) | effect on indicators of dry eye disease including corneal scores and corneal fluorescein retention ([2]; overall conclusion of the study, 100 μM topical) | tear production [3]
Ac-AKGE-OH [BIO-91201] | not significantly different than sham eyes | significantly lower FL retention than PBS or BIO-11006 dosed eyes | no difference between sham and BIO-91201 | reduced corneal opacity scores relative to the PBS and BIO-11006 dosed groups | significant positive effect | improvement in tear production
BIO-11006: N-terminal acetylated peptide of SEQ ID NO 106 (GAQFSKTAAK), free C-terminus; MARCKS inhibitor, high molecular weight (Ac-GAQFSKTAAK-OH) |  |  | significantly elevated |  |  | 
